Laboratory results: US20200323213A1, “Methods of use for compositions comprising biguanide compound and diol surfactant” (3M INNOVATIVE PROPERTIES COMPANY, priority 2014, published 2020)

Legend:
[1] = cited from earlier work
[2] = test system: Staphylococcus aureus strain 15981; assay: Antimicrobial efficacy test: survival of planktonic S. aureus after short exposure; format: cell-based; conditions: 0.1wt-% of CHG, alone or in combination with DYNOL (text summary, matches Table 4)
From the text: The composition described herein can reduce and eliminate Staphylococcus aureus and Pseudomonas aeruginosa. Those of ordinary skill in the art will readily determine when a composition provides antimicrobial activity using assay and bacterial screening methods well known in the art. For example, the compositions can be evaluated utilizing Antimicrobial Efficacy Test described in the Examples Section. Briefly, a bacterial suspension is introduced into a liquid composition. After a sufficient contact time, the sample containing the exposed bacteria is collected, placed in neutralizing broth, a sample is taken and diluted, and plated on growth medium. The plated sample is incubated at an appropriate temperature and humidity for twenty four to forty-eight hours and the number of viable bacterial colonies growing on the plate is counted. Once colonies have been counted the reduction in the number of bacteria caused by the test composition is readily determined. Bacterial reduction is generally reported as log10 reduction determined by the difference between the log10 of the initial inoculum count (i.e. the control) and the log10 of the inoculum count after exposure. […]

Row | SMILES | solubility in aqueous fluid [1] [g/100 ml] | log10 reduction [2]
1 | CC(=O)O.CC(=O)O.NC(=N\CCCCCC/N=C(N)/N=C(\N)Nc1ccc(Cl)cc1)/N=C(\N)Nc1ccc(Cl)cc1 [diacetate] | 1.9 | 
2 | N=C(NCCCCCCNC(=N)NC(=N)Nc1ccc(Cl)cc1)NC(=N)Nc1ccc(Cl)cc1.O=C(O)[C@H](O)[C@@H](O)[C@H](O)[C@H](O)CO.O=C(O)[C@H](O)[C@@H](O)[C@H](O)[C@H](O)CO [CHG, chlorhexidine digluconate] |  | 0.32
